In patent US10392368B2, “Pyrazolo and triazolo bicyclic compounds as JAK kinase inhibitors” (THERAVANCE BIOPHARMA R&D IP, LLC, priority 2017, dated 2019):
Like-named read-outs stand apart in the source and are kept apart here.

Legend:
[1] = target: T1, JAK1 (Homo sapiens, UniProt P23458); assay: Biochemical JAK1 kinase assay (LanthaScreen); conditions: for Ki: read-out: JAK 1 (pKi) (converted)
T1 construct: GST; purchased Life Technologies
How it was run: (§1)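 TR-FRET readout (520/495 nm) using Tb-labelled pTyr701 antibody after EDTA stop, following 1 h ATP-started phosphorylation of GFP-STAT1 by recombinant GST-JAK. Compounds preincubated 1 h with enzyme and substrate; pIC50 from 4-parameter fit, Cheng-Prusoff gives pKi.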

[2] = target: T2, JAK2 (Homo sapiens, UniProt O60674); assay: Biochemical JAK2 kinase assay (LanthaScreen); conditions: for Ki: read-out: JAK 2 (pKi) (converted)
T2 construct: GST; purchased Life Technologies
How it was run: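 GST-tagged recombinant JAK2 pre-incubated 1 h at ambient temperature with compound and GFP-STAT1 peptide in HEPES pH 7.5/MgCl2 buffer, then ATP added for a 1 h reaction with 1% DMSO. TR-FRET read after EDTA and Tb-anti-pSTAT1 (pTyr701) addition; IC50 from 4-parameter fit, converted to pKi by Cheng-Prusoff.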

[3] = target: T3, Tyk2 (Homo sapiens, UniProt P29597); assay: Biochemical Tyk2 kinase assay (LanthaScreen); conditions: for Ki: read-out: Tyk 2 (pKi) (converted)
T3 construct: GST; purchased Life Technologies
How it was run: as §1

[4] = system: IL-2 stimulated pSTAT5 in Tall-1 T cells; assay: Cellular JAK3 potency assay: inhibition of IL-2 stimulated pSTAT5 in Tall-1 T cells; type: cell-based, human; conditions: for IC50: Homo sapiens, read-out: Tall-1 (pIC50) (converted)
How it was run: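 Tall-1 human T cells (45,000/well) in phenol red-free DMEM with 10% FBS were preincubated with compound 1 h at 37 °C, then stimulated with IL-2 (final 300 ng/ml) for 30 min. Lysate pSTAT5 read by AlphaLisa; IC50 from inhibition curves, reported as pIC50 (mean±SD).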

[5] = target: T4, JAK3 (Homo sapiens, UniProt P52333); assay: Biochemical JAK3 kinase assay (LanthaScreen); parameters: GST; purchased Life Technologies; conditions: for Ki: read-out: JAK 3 (pKi) (converted)
T4 sequence (P52333 1-1124): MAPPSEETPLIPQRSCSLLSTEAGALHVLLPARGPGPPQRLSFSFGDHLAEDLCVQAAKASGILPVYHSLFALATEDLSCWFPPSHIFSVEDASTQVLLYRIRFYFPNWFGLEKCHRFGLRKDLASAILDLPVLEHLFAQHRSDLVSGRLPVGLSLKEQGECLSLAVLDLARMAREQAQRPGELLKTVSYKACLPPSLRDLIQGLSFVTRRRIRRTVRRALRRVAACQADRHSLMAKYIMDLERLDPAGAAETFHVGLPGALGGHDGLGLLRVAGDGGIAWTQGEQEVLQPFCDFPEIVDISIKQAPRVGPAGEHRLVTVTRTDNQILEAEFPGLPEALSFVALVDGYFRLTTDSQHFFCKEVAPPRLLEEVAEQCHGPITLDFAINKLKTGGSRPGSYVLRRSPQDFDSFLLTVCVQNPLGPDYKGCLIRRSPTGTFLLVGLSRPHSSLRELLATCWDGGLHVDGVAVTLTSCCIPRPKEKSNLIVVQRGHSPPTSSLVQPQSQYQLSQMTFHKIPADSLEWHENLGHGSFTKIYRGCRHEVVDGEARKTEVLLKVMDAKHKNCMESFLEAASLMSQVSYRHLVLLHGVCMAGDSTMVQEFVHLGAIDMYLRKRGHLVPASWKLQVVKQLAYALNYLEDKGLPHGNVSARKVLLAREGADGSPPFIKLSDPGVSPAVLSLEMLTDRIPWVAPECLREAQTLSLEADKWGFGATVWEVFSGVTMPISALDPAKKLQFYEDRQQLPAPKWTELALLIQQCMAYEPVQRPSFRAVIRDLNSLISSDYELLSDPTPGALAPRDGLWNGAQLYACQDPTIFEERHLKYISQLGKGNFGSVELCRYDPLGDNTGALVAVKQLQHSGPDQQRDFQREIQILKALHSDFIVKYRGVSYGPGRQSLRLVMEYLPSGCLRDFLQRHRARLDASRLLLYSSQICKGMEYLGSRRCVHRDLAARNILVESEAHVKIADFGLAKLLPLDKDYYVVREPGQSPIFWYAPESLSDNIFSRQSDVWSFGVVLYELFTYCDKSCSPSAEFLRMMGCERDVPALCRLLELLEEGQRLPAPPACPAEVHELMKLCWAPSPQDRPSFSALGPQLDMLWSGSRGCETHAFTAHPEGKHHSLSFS
How it was run: as §1

[6] = TALL-1, IL-2 stimulated pSTAT5, Tall-1 T cells
[7] = selectivity JAK3 over JAK1, difference of pKi
[8] = TALL-1, IL-2 stimulated pSTAT5 in Tall-1 T cells
[9] = selectivity: difference of pKi JAK3 and pKi JAK1
[10] = IL-2 stimulated pSTAT5 in Tall-1 T cells
[11] = IL-2 stimulated pSTAT5, Tall-1 T cells

T3 sequence (P29597 whole entry): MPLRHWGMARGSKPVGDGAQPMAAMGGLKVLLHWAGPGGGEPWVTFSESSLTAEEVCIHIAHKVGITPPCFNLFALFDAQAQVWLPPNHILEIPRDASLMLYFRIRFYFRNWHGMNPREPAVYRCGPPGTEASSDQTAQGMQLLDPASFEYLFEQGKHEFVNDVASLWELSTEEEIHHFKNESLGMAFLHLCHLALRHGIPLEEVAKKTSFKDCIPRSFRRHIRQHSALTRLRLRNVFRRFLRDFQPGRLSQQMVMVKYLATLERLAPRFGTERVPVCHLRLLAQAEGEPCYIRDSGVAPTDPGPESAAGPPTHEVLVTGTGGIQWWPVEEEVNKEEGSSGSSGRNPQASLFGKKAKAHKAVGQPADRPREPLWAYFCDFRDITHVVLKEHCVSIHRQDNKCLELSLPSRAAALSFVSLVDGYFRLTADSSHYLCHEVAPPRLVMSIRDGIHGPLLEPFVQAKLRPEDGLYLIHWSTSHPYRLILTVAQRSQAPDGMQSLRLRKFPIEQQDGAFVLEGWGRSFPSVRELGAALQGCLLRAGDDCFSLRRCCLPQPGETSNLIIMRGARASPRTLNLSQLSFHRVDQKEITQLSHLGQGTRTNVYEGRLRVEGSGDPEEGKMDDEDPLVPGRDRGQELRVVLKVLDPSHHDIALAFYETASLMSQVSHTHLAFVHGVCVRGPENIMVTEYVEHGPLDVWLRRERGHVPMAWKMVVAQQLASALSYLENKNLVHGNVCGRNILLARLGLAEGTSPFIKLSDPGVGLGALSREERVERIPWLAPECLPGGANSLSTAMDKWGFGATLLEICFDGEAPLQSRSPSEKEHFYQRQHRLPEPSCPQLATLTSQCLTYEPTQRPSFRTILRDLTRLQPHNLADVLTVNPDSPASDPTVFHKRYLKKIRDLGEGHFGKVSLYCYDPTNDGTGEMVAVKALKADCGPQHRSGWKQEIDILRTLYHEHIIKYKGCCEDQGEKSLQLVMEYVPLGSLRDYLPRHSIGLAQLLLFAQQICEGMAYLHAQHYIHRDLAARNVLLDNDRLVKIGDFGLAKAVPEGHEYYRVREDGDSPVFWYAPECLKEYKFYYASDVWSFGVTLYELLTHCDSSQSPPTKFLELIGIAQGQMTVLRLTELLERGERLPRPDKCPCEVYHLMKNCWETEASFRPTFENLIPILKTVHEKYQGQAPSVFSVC
T1 sequence (P23458 whole entry): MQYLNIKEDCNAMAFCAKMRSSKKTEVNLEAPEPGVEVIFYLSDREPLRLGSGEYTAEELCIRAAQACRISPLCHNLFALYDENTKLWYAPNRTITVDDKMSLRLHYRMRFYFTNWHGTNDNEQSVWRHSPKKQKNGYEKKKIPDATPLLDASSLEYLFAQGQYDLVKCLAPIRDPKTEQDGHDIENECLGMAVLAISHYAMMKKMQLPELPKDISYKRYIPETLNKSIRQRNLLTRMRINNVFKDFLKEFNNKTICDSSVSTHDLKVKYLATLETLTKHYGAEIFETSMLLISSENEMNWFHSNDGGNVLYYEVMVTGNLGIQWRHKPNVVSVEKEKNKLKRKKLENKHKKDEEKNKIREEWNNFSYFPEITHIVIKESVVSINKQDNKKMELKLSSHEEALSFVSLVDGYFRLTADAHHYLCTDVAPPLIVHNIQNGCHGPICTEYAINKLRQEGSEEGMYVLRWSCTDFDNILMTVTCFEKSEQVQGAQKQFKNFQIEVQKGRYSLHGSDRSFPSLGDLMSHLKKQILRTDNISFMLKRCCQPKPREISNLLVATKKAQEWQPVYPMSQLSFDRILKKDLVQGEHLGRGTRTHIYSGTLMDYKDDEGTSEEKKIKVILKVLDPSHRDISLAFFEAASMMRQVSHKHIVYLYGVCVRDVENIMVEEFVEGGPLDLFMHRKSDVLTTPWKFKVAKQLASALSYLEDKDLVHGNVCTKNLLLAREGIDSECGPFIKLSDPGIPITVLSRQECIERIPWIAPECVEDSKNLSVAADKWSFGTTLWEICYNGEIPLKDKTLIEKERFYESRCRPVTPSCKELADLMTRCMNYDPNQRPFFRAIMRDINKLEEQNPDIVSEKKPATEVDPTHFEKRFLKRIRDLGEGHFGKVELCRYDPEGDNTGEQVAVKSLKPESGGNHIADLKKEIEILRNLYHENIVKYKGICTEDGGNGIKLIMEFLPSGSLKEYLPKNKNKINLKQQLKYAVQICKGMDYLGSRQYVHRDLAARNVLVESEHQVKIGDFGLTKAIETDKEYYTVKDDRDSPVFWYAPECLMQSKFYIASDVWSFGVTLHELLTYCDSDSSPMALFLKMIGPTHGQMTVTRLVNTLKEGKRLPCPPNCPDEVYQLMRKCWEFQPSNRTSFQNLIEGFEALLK
T2 sequence (O60674 whole entry): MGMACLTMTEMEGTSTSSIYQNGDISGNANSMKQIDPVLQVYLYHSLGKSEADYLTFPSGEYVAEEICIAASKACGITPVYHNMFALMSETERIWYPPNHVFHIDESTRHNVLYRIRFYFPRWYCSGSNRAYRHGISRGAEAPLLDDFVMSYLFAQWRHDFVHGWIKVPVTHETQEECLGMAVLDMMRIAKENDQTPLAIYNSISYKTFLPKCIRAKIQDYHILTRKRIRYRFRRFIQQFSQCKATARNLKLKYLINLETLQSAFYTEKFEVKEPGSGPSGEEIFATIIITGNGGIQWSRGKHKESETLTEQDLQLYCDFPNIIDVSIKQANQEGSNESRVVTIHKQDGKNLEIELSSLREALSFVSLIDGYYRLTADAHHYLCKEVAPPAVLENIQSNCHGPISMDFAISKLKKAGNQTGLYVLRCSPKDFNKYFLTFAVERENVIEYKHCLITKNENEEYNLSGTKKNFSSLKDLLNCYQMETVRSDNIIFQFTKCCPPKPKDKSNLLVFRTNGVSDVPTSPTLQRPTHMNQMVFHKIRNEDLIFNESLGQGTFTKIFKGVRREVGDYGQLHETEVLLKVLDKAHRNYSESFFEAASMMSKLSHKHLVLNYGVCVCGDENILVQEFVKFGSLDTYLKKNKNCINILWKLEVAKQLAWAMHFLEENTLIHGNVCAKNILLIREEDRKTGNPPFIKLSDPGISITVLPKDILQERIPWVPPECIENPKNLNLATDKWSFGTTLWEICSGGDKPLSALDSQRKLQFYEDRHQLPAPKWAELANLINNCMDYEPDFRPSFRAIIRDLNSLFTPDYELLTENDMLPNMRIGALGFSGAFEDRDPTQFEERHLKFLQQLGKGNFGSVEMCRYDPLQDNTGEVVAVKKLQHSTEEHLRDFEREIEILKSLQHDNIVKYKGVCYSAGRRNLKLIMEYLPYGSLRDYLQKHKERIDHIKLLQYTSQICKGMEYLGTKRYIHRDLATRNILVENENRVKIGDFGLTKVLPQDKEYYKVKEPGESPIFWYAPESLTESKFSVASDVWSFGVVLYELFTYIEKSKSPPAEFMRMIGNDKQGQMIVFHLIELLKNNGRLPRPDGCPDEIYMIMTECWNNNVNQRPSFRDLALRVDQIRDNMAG

Compound	Ki [1] [nM]	Ki [2] [nM]	Ki [3] [nM]	IC50 [4, 6] [nM]	Ki [5] [nM]	JAK3 (pKi)-JAK1 (pKi) [5, 7]	IC50 [4, 8] [nM]	JAK3 (pKi)-JAK1 (pKi) [5, 9]	JAK 1 (pKi) [1]	JAK 2 (pKi) [2]	Tyk 2 (pKi) [3]	Tall-1 (pIC50) [4, 10]	JAK 3 (pKi) [5]	Tall-1 (pIC50) [4, 11]
CN(C)C/C=C/C(=O)N1CCC(COc2cc(-c3ccc(O)cc3)cc3[nH]ncc23)CC1 [Compound 12-26]	> 100	10 to 100	> 100	200 to 1000	0.1 to 1	B (a value of 2.3 to 3)								
C=CC(=O)N1CC[C@H](Oc2nc(-c3ccc(O)c(F)c3)nc3[nH]nc(C)c23)C1 [Compound 1-38]	> 100	> 100	> 100		< 0.1		31.6 to 200	A (a value of 3 or above)						
C=CC(=O)N1CC[C@H](Oc2cc(-c3ccc(O)cc3)cc3[nH]ncc23)C1 [Compound 1-2]	> 100	10 to 100	> 100		< 0.1		< 31.6	A (a value of 3 or above)						
CN(C)C/C=C/C(=O)N1CCSC[C@@H]1C(=O)Nc1cc(-c2ccc(O)cc2)cc2[nH]ncc12 [Compound 12-65]	> 100	> 100	> 100	200 to 1000	0.1 to 1	A (a value of 3 or above)								
C=CC(=O)N1CC(C#N)(COc2nc(-c3ccc(O)cc3)nc3[nH]ncc23)C1 [Compound 3-104]	> 100	> 100	> 100		< 0.1		< 31.6	A (a value of 3 or above)						
C=C(CN(C)C)C(=O)N1CC(COc2nc(-c3ccc(O)c(Cl)c3)nc3[nH]ncc23)C1 [Compound 3-60]								A (a value of 3 or above)	E (a pKi value of 7 or below (Ki of 100 nM or above))	E (a pKi value of 7 or below (Ki of 100 nM or above))	E (a pKi value of 7 or below (Ki of 100 nM or above))	B (a pIC50 value between 6.7 (included) and 7.5 (IC50 between 200 nM and 32 nM))	A (a pKi value≥10 (Ki≤0.1 nM))	
C=CC(=O)N1C2CCC1CC(Oc1cc(-c3ccc(O)cc3)cc3[nH]ncc13)C2 (stereo not drawn) [Compound 9-1]						A (a value of 3 or above)			E (a pKi value of 7 or below (Ki of 100 nM or above))	D (a pKi value between 7 and 8 (Ki between 100 nM and 10 nM))	E (a pKi value of 7 or below (Ki of 100 nM or above))		A (a pKi value≥10 (Ki≤0.1 nM))	A (a pIC50 value≥7.5 (IC50≤32 nM))
C=C(CN(C)C)C(=O)N1CC(COc2cc(-c3ccc(O)cc3)nc3[nH]ncc23)C1 [Compound 3-79]	> 100	> 100	> 100		0.1 to 1		31.6 to 200	A (a value of 3 or above)						
C=CC(=O)N1CC[C@H](Oc2cc(-c3ccc(O)cc3)cc3[nH]ncc23)C[C@@H]1C [Compound 12-31]	> 100	1 to 10	> 100	31.6 to 200	< 0.1	A (a value of 3 or above)								
CN(C)C/C=C/C(=O)N1CC(OCc2cc(-c3ccc(O)c(F)c3)cc3[nH]ncc23)C1 [Compound 16-7]						A (a value of 3 or above)			E (a pKi value of 7 or below (Ki of 100 nM or above))	E (a pKi value of 7 or below (Ki of 100 nM or above))	E (a pKi value of 7 or below (Ki of 100 nM or above))		A (a pKi value≥10 (Ki≤0.1 nM))	B (a pIC50 value between 6.7 (included) and 7.5 (IC50 between 200 nM and 32 nM))
CN(C)C/C=C/C(=O)N1CC(Oc2cc(-c3ccc(O)c(Cl)c3)cc3[nH]ncc23)(C(F)F)C1 [Compound 5-16]								A (a value of 3 or above)	E (a pKi value of 7 or below (Ki of 100 nM or above))	6	E (a pKi value of 7 or below (Ki of 100 nM or above))	A (a pIC50 value≥7.5 (IC50≤32 nM))	A (a pKi value≥10 (Ki≤0.1 nM))	
C=CC(=O)N1CC[C@H](Oc2cc(-c3ccc(O)c(F)c3)cc3[nH]ncc23)C1 [Compound 1-5]	> 100	10 to 100	> 100		< 0.1		< 31.6	A (a value of 3 or above)						
C=CC(=O)N1CC[C@H](COc2nc(-c3ccc(O)c(Cl)c3)nc3[nH]ncc23)C1 [Compound 2-11]								A (a value of 3 or above)	E (a pKi value of 7 or below (Ki of 100 nM or above))	E (a pKi value of 7 or below (Ki of 100 nM or above))	E (a pKi value of 7 or below (Ki of 100 nM or above))	B (a pIC50 value between 6.7 (included) and 7.5 (IC50 between 200 nM and 32 nM))	B (a pKi value between 9 and 10 (Ki between 1 nM and 0.1 nM))	
CCSCCNC/C=C/C(=O)N1CC(COc2cc(-c3ccc(O)cc3)cc3[nH]ncc23)C1 [Compound 3-126]	> 100	10 to 100	> 100		< 0.1		200 to 1000	A (a value of 3 or above)						
C=CC(=O)N1CC[C@H](Oc2cc(-c3c(F)cc(O)cc3F)cc3[nH]ncc23)C1 [Compound 1-18]	10 to 100	10 to 100	> 100		0.1 to 1		< 31.6	B (a value of 2.3 to 3)						
